In PubChem BioAssay AID1845194 (Molecular Pharmacology Branch, DTP, NCI, 2023):

Test system: 287954-098-R-J1 tumor spheroid viability
Test: Anticancer human tumor 287954-098-R-J1 patient-derived Ewing sarcoma cell line growth inhibition
Settings: spheroids with HUVEC and MSC; for IC50: curve of first compound; for viability, T/C: stronger effect = lower value
Method in brief: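 Complex tumor spheroids combined malignant cells with endothelial cells and mesenchymal stem cells. DNA-damaging drugs and DNA repair inhibitors were tested alone and in combination, at half-log dilutions down from clinical Cmax (top 10 microM if Cmax unknown), 0.25% DMSO final.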

[1] = second compound 30 pM, first compound 0.00949 µM
[2] = second compound 30 pM, first compound 0.03 µM
[3] = second compound 30 pM, first compound 0.0949 µM
[4] = second compound 30 pM, first compound 0.3 µM
[5] = second compound 30 pM, first compound 0.949 µM
[6] = second compound 30 pM, first compound 3 µM
[7] = second compound 94.9 pM, first compound 0.00949 µM
[8] = second compound 94.9 pM, first compound 0.03 µM
[9] = second compound 94.9 pM, first compound 0.0949 µM
[10] = second compound 94.9 pM, first compound 0.3 µM
[11] = second compound 94.9 pM, first compound 0.949 µM
[12] = second compound 94.9 pM, first compound 3 µM
[13] = second compound 0.0003 µM, first compound 0.00949 µM
[14] = second compound 0.0003 µM, first compound 0.03 µM
[15] = second compound 0.0003 µM, first compound 0.0949 µM
[16] = second compound 0.0003 µM, first compound 0.3 µM
[17] = second compound 0.0003 µM, first compound 0.949 µM
[18] = second compound 0.0003 µM, first compound 3 µM
[19] = second compound 0.000949 µM, first compound 0.00949 µM
[20] = second compound 0.000949 µM, first compound 0.03 µM
[21] = second compound 0.000949 µM, first compound 0.0949 µM
[22] = second compound 0.000949 µM, first compound 0.3 µM
[23] = second compound 0.000949 µM, first compound 0.949 µM
[24] = second compound 0.000949 µM, first compound 3 µM
[25] = second compound 0.003 µM, first compound 0.00949 µM
[26] = second compound 0.003 µM, first compound 0.03 µM
[27] = second compound 0.003 µM, first compound 0.0949 µM
[28] = second compound 0.003 µM, first compound 0.3 µM
[29] = second compound 0.003 µM, first compound 0.949 µM
[30] = second compound 0.003 µM, first compound 3 µM
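Note: spheroids exposed to compound for 7 days before viability readout.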
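Throughout, for viability, T/C: luminescent signal taken as surrogate of viable cell content; 100% = DMSO vehicle control viability and lower means growth inhibition.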

SMILES	IC50 (second compound 30 pM)	IC50 (second compound 94.9 pM)	IC50 (second compound 0.0003 µM)	IC50 (second compound 0.000949 µM)	IC50 (second compound 0.003 µM)	viability, T/C [3]	viability, T/C [4]	viability, T/C [5]	viability, T/C [6]	viability, T/C [9]	viability, T/C [10]	viability, T/C [11]	viability, T/C [12]	viability, T/C [15]	viability, T/C [16]	viability, T/C [17]	viability, T/C [18]	viability, T/C [21]	viability, T/C [22]	viability, T/C [23]	other results
CNCc1ccc(-c2cc(-c3nc(-c4ccc(S(=O)(=O)C(C)C)cc4)cnc3N)on2)cc1 + COc1cc2c(cc1O)CCNC21CSC2c3c(OC(C)=O)c(C)c4c(c3C(COC1=O)N1C(O)C3Cc5cc(C)c(OC)c(O)c5C(C21)N3C)OCO4	516 nM	207 nM	154 nM	< 9.49 nM	< 9.49 nM	110%	94.5%	0.18%	0.12%	113%	21.7%	0.11%	0.14%	85.7%	0.62%	0.04%	0.13%	0.26%	0.07%	0.03%	viability, T/C [1]: 109%; viability, T/C [2]: 108%; viability, T/C [7]: 111%; viability, T/C [8]: 106%; viability, T/C [13]: 110%; viability, T/C [14]: 115%; viability, T/C [19]: 0.42%; viability, T/C [20]: 0.41%; viability, T/C [24]: 0.14%; viability, T/C [25]: 0.21%; viability, T/C [26]: 0.22%; viability, T/C [27]: 0.18%; viability, T/C [28]: 0.17%; viability, T/C [29]: 0.16%; viability, T/C [30]: 0.24%
Cc1sc2c(c1C)C(c1ccc(Cl)cc1)=NC(CC(=O)Nc1ccc(O)cc1)c1nnc(C)n1-2 (stereo not given) + COc1cc2c(cc1O)CCNC21CSC2c3c(OC(C)=O)c(C)c4c(c3C(COC1=O)N1C(O)C3Cc5cc(C)c(OC)c(O)c5C(C21)N3C)OCO4	529 nM	428 nM	77.3 nM	< 9.49 nM	< 9.49 nM	111%	97.2%	1.47%	1.05%	112%	65.4%	14.5%	1.03%	39%	12.4%	0.78%	0.57%	0.25%	0.07%	0.03%	viability, T/C [1]: 110%; viability, T/C [2]: 120%; viability, T/C [7]: 109%; viability, T/C [8]: 117%; viability, T/C [13]: 105%; viability, T/C [14]: 93.7%; viability, T/C [19]: 0.33%; viability, T/C [20]: 0.34%; viability, T/C [24]: 0.11%; viability, T/C [25]: 0.17%; viability, T/C [26]: 0.16%; viability, T/C [27]: 0.1%; viability, T/C [28]: 0.11%; viability, T/C [29]: 0.11%; viability, T/C [30]: 0.19%
Cn1ncnc1[C@H]1c2n[nH]c(=O)c3cc(F)cc(c23)N[C@@H]1c1ccc(F)cc1 + COc1cc2c(cc1O)CCNC21CSC2c3c(OC(C)=O)c(C)c4c(c3C(COC1=O)N1C(O)C3Cc5cc(C)c(OC)c(O)c5C(C21)N3C)OCO4	575 nM	477 nM	39 nM	< 9.49 nM	< 9.49 nM	102%	97.6%	13.3%	1.27%	106%	82.7%	1.42%	1.02%	6%	1.31%	0.92%	0.91%	0.23%	0.13%	0.04%	viability, T/C [1]: 99%; viability, T/C [2]: 111%; viability, T/C [7]: 107%; viability, T/C [8]: 104%; viability, T/C [13]: 81.8%; viability, T/C [14]: 63%; viability, T/C [19]: 0.31%; viability, T/C [20]: 0.21%; viability, T/C [24]: 0.12%; viability, T/C [25]: 0.16%; viability, T/C [26]: 0.17%; viability, T/C [27]: 0.13%; viability, T/C [28]: 0.12%; viability, T/C [29]: 0.12%; viability, T/C [30]: 0.2%
O=C(c1cc(Cc2n[nH]c(=O)c3ccccc23)ccc1F)N1CCN(C(=O)C2CC2)CC1 + COc1cc2c(cc1O)CCNC21CSC2c3c(OC(C)=O)c(C)c4c(c3C(COC1=O)N1C(O)C3Cc5cc(C)c(OC)c(O)c5C(C21)N3C)OCO4	9180 nM	10500 nM	1460 nM	< 94.9 nM	< 94.9 nM	112%	108%	99.5%	112%	114%	114%	109%	109%	98.8%	102%	68%	18.6%	0.38%	0.39%	0.26%	viability, T/C (second compound 30 pM, first compound 9.49 µM): 48.3%; viability, T/C (second compound 30 pM, first compound 30 µM): 4.03%; viability, T/C (second compound 94.9 pM, first compound 9.49 µM): 54.4%; viability, T/C (second compound 94.9 pM, first compound 30 µM): 2.51%; viability, T/C (second compound 0.0003 µM, first compound 9.49 µM): 0.6%; viability, T/C (second compound 0.0003 µM, first compound 30 µM): 0.57%; viability, T/C [24]: 0.18%; viability, T/C (second compound 0.000949 µM, first compound 9.49 µM): 0.07%; viability, T/C (second compound 0.000949 µM, first compound 30 µM): 0.23%; viability, T/C [27]: 0.32%; viability, T/C [28]: 0.31%; viability, T/C [29]: 0.3%; viability, T/C [30]: 0.29%; viability, T/C (second compound 0.003 µM, first compound 9.49 µM): 0.28%; viability, T/C (second compound 0.003 µM, first compound 30 µM): 0.35%
